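1) Cells in 96-well plates. 2) Compound, 48 h, 5 concentrations. 3) Linear interpolation between surrounding doses. 4) Unreached endpoint = highest concentration. GI50 = concentration required for 50% inhibition of growth. TGI: total growth inhibition.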
How the values were obtained:
Assay in all cases: inhibition of tumour cell growth, NCI panel, 48 h
[1] = system: 786-0 renal
[2] = system: A498 renal
[3] = system: A549 NSCLC
[4] = system: ACHN renal
[5] = system: BT-549 breast
[6] = system: CAKI-1 renal
[7] = system: CCRF-CEM leukemia
[8] = system: COLO 205 colon
[9] = system: DU-145 prostate
[10] = system: EKVX NSCLC
[11] = system: HCC-2998 colon
[12] = system: HCT-116 colon
[13] = system: HCT-15 colon
[14] = system: HL-60(TB) leukemia
[15] = system: HOP-62 NSCLC
[16] = system: HOP-92 NSCLC
[17] = system: HS 578T breast
[18] = system: HT29 colon
[19] = system: IGROV1 ovarian
[20] = system: K-562 leukemia
[21] = system: KM12 colon
[22] = system: LOX IMVI melanoma
[23] = system: M14 melanoma
[24] = system: MALME-3M melanoma
[25] = system: MCF7 breast
[26] = system: MDA-MB-231 breast
[27] = system: MOLT-4 leukemia
[28] = system: NCI-H226 lung
[29] = system: NCI-H23 lung
[30] = system: NCI-H460 lung
[31] = system: NCI-H522 lung
[32] = system: NCI/ADR-RES ovarian
[33] = system: OVCAR-3 ovarian
[34] = system: OVCAR-4 ovarian
[35] = system: OVCAR-5 ovarian
[36] = system: OVCAR-8 ovarian
[37] = system: PC-3 prostate
[38] = system: RPMI-8226 leukemia
[39] = system: RXF 393 renal
[40] = system: SF-268 CNS
[41] = system: SF-295 CNS
[42] = system: SF-539 CNS
[43] = system: SK-MEL-2 melanoma
[44] = system: SK-MEL-28 melanoma
[45] = system: SK-MEL-5 melanoma
[46] = system: SK-OV-3 ovarian
[47] = system: SN12C renal
[48] = system: SNB-19 CNS
[49] = system: SNB-75 CNS
[50] = system: SR leukemia
[51] = system: SW-620 colon
[52] = system: T-47D breast
[53] = system: TK-10 renal
[54] = system: U251 CNS
[55] = system: UACC-257 melanoma
[56] = system: UACC-62 melanoma
[57] = system: UO-31 renal

COc1ccc(/C=N/NC(=O)c2cccc3cc[nH]c23)cc1O
GI50 [1]: 5.13 µM
TGI [1]: > 100 µM
GI50 [2]: 4.05 µM
TGI [2]: 86.1 µM
GI50 [3]: 5.36 µM
TGI [3]: > 100 µM
GI50 [4]: 4.19 µM
TGI [4]: > 100 µM
GI50 [5]: 12.2 µM
TGI [5]: > 78.8 µM
GI50 [6]: 0.192 µM
TGI [6]: > 49 µM
GI50 [7]: 1.93 µM
TGI [7]: > 28.5 µM
GI50 [8]: 13.9 µM
TGI [8]: > 80.7 µM
GI50 [9]: 3 µM
TGI [9]: > 46.5 µM
GI50 [10]: 11 µM
TGI [10]: > 100 µM
GI50 [11]: 6.96 µM
TGI [11]: 97.5 µM
GI50 [12]: 1.72 µM
TGI [12]: > 100 µM
GI50 [13]: 0.615 µM
TGI [13]: > 46.1 µM
GI50 [14]: 0.55 µM
TGI [14]: > 22.7 µM
GI50 [15]: 11.2 µM
TGI [15]: > 100 µM
GI50 [16]: 18.5 µM
TGI [16]: > 74.6 µM
GI50 [17]: 1.47 µM
TGI [17]: > 30.3 µM
GI50 [18]: 4.32 µM
TGI [18]: > 100 µM
GI50 [19]: 7.91 µM
TGI [19]: > 100 µM
GI50 [20]: 2.17 µM
TGI [20]: > 100 µM
GI50 [21]: 0.883 µM
TGI [21]: > 100 µM
GI50 [22]: 1.3 µM
TGI [22]: > 100 µM
GI50 [23]: 1.13 µM
TGI [23]: > 100 µM
GI50 [24]: 1.96 µM
TGI [24]: > 100 µM
GI50 [25]: 0.63 µM
TGI [25]: > 100 µM
GI50 [26]: 0.685 µM
TGI [26]: > 35 µM
GI50 [27]: 2.84 µM
TGI [27]: > 66.2 µM
GI50 [28]: 6.28 µM
TGI [28]: > 33.7 µM
GI50 [29]: 6.57 µM
TGI [29]: > 100 µM
GI50 [30]: 2.03 µM
TGI [30]: > 68.3 µM
GI50 [31]: 2.26 µM
TGI [31]: > 100 µM
GI50 [32]: 1.86 µM
TGI [32]: > 100 µM
GI50 [33]: 0.307 µM
TGI [33]: 1.89 µM
GI50 [34]: 10.3 µM
TGI [34]: > 100 µM
GI50 [35]: > 54.6 µM
TGI [35]: > 100 µM
GI50 [36]: 6.2 µM
TGI [36]: > 100 µM
GI50 [37]: 2.05 µM
TGI [37]: > 100 µM
GI50 [38]: 3.38 µM
TGI [38]: 24.8 µM
GI50 [39]: 5.83 µM
TGI [39]: > 100 µM
GI50 [40]: 4.01 µM
TGI [40]: > 100 µM
GI50 [41]: 0.736 µM
TGI [41]: > 24.8 µM
GI50 [42]: 1.85 µM
TGI [42]: > 100 µM
GI50 [43]: 18.9 µM
TGI [43]: > 100 µM
GI50 [44]: 6.46 µM
TGI [44]: > 100 µM
GI50 [45]: 1.27 µM
TGI [45]: > 80.7 µM
GI50 [46]: 9.87 µM
TGI [46]: > 100 µM
GI50 [47]: 0.493 µM
TGI [47]: > 40.9 µM
GI50 [48]: 4.07 µM
TGI [48]: > 100 µM
GI50 [49]: 0.24 µM
TGI [49]: > 100 µM
GI50 [50]: 0.349 µM
TGI [50]: > 41.2 µM
GI50 [51]: 0.65 µM
TGI [51]: > 100 µM
GI50 [52]: 5.74 µM
TGI [52]: > 100 µM
GI50 [53]: 14.4 µM
TGI [53]: > 100 µM
GI50 [54]: 2.4 µM
TGI [54]: > 100 µM
GI50 [55]: > 42.8 µM
TGI [55]: > 100 µM
GI50 [56]: 0.878 µM
TGI [56]: > 35.1 µM
GI50 [57]: 6.51 µM
TGI [57]: > 100 µM

COc1ccc(C2[C@@H](c3ccccc3)C(=O)N2c2cc(OC)c(OC)c(OC)c2)cc1F (some centres not stated)
GI50 [1]: 0.0314 µM
TGI [1]: > 100 µM
GI50 [2]: 0.027 µM
TGI [2]: 0.0861 µM
GI50 [3]: 0.0368 µM
TGI [3]: > 100 µM
GI50 [4]: 0.044 µM
TGI [4]: > 100 µM
GI50 [5]: 0.0266 µM
TGI [5]: 0.09 µM
GI50 [6]: 0.0332 µM
TGI [6]: > 100 µM
GI50 [7]: 0.0361 µM
TGI [7]: > 100 µM
GI50 [9]: 0.0354 µM
TGI [9]: > 100 µM
GI50 [10]: 0.0776 µM
TGI [10]: > 100 µM
GI50 [11]: 0.0394 µM
TGI [11]: > 100 µM
GI50 [12]: 0.0324 µM
TGI [12]: 10.4 µM
GI50 [13]: 0.0336 µM
TGI [13]: > 100 µM
GI50 [14]: 0.0223 µM
TGI [14]: 0.0542 µM
GI50 [15]: 0.0379 µM
TGI [15]: > 100 µM
GI50 [16]: 2.84 µM
TGI [16]: > 100 µM
GI50 [17]: 0.0434 µM
TGI [17]: 78.7 µM
GI50 [18]: 0.026 µM
TGI [18]: 0.0781 µM
GI50 [19]: 0.0428 µM
TGI [19]: > 100 µM
GI50 [20]: 0.0321 µM
TGI [20]: > 100 µM
GI50 [21]: 0.0331 µM
TGI [21]: > 100 µM
GI50 [22]: 0.0296 µM
TGI [22]: 13.8 µM
GI50 [23]: 0.0226 µM
TGI [23]: 0.0672 µM
GI50 [24]: > 100 µM
TGI [24]: > 100 µM
GI50 [25]: 0.0296 µM
TGI [25]: > 100 µM
GI50 [26]: 0.0452 µM
TGI [26]: > 100 µM
GI50 [27]: 0.0381 µM
TGI [27]: > 100 µM
GI50 [28]: 0.035 µM
TGI [28]: > 100 µM
GI50 [29]: 0.0489 µM
TGI [29]: > 100 µM
GI50 [30]: 0.0344 µM
TGI [30]: > 100 µM
GI50 [31]: 0.0186 µM
TGI [31]: 0.0657 µM
GI50 [32]: 0.0394 µM
TGI [32]: > 100 µM
GI50 [33]: 0.028 µM
TGI [33]: 0.077 µM
GI50 [34]: 0.0871 µM
TGI [34]: > 100 µM
GI50 [35]: 0.0517 µM
TGI [35]: > 100 µM
GI50 [36]: 0.0344 µM
TGI [36]: > 100 µM
GI50 [37]: 0.0403 µM
TGI [37]: > 100 µM
GI50 [38]: 0.0413 µM
TGI [38]: 4 µM
GI50 [40]: 0.0443 µM
TGI [40]: > 100 µM
GI50 [41]: 0.029 µM
TGI [41]: 1.78 µM
GI50 [42]: 0.0234 µM
TGI [42]: 0.0706 µM
GI50 [43]: 0.0354 µM
TGI [43]: > 100 µM
GI50 [44]: 1.37 µM
TGI [44]: > 100 µM
GI50 [45]: 0.0271 µM
TGI [45]: 0.075 µM
GI50 [46]: 0.0348 µM
TGI [46]: > 100 µM
GI50 [47]: 0.0561 µM
TGI [47]: > 100 µM
GI50 [48]: 0.0499 µM
TGI [48]: > 100 µM
GI50 [49]: 0.0314 µM
TGI [49]: > 100 µM
GI50 [50]: 0.0373 µM
TGI [50]: > 100 µM
GI50 [51]: 0.0419 µM
TGI [51]: > 100 µM
GI50 [52]: > 100 µM
TGI [52]: > 100 µM
GI50 [53]: 1.68 µM
TGI [53]: > 100 µM
GI50 [54]: 0.0359 µM
TGI [54]: > 100 µM
GI50 [56]: 0.0543 µM
TGI [56]: > 100 µM
GI50 [57]: 0.0771 µM
TGI [57]: > 100 µM
